# Results from US20240358021A1, “COMPOSITION COMPRISING POTASSIUM BICARBONATE AND USE THEREOF FOR TREATING AND/OR PROTECTING CROPS” (SCEA DU CHATEAU MONTROSE, priority 2021, published 2024).
# Assays:
# [1] = tested on: downy mildew, powdery mildew and vine rot
# [2] = tested on: downy mildew (P. viticola) strains PV221, PV413-1, PV1538-1; test: In vitro efficacy test on vine leaf discs (Example 2); type: cell-based, Plasmopara viticola; conditions: mean over downy mildew strains; Example 2 method
SMILES,"effect on phytopathogens, in words [1]",Mean IC50 (CI 50) [2] [µg/mL],Mean MIC (CMI) [2] [µg/mL]
"O=C([O-])O.[K+] [KHCO3, potassium bicarbonate]",significant,1000,5600
"O=C([O-])O.[Na+] [NaHCO3, sodium bicarbonate]",,1850,10000
